Measured values reported in US20080039438A1, “1B-Methylcarbapenem Derivative and Process for the Preparation Thereof” (Korea Institute of Science and Technology, priority 2004, published 2008).

Experiments:
Format in all cases: cell-based
[1] = tested on: Staphylococcus aureus SG511; assay: MIC against standard strains (agar dilution); details: standard strain Staphylococcus aureus SG511, 37° C., 18 to 20 hours, read-out: Minimum Inhibitory Concentration (MIC)
[2] = tested on: Staphylococcus aureus 285; assay: MIC against standard strains (agar dilution); details: standard strain Staphylococcus aureus 285, 37° C., 18 to 20 hours, read-out: Minimum Inhibitory Concentration (MIC)
[3] = tested on: Escherichia coli 078; assay: MIC against standard strains (agar dilution); details: standard strain Escherichia coli 078, 37° C., 18 to 20 hours, read-out: Minimum Inhibitory Concentration (MIC)
[4] = tested on: Escherichia coli DC 0; assay: MIC against standard strains (agar dilution); details: DC0, standard strain Escherichia coli DC 0, 37° C., 18 to 20 hours, read-out: Minimum Inhibitory Concentration (MIC)
[5] = tested on: Escherichia coli TEM; assay: MIC against standard strains (agar dilution); details: standard strain Escherichia coli TEM, 37° C., 18 to 20 hours, read-out: Minimum Inhibitory Concentration (MIC)
[6] = tested on: Pseudomonas aeruginosa 1592E; assay: MIC against standard strains (agar dilution); details: standard strain Pseudomonas aeruginosa 1592E, 37° C., 18 to 20 hours, read-out: Minimum Inhibitory Concentration (MIC)
[7] = tested on: Pseudomonas aeruginosa 1771; assay: MIC against standard strains (agar dilution); details: standard strain Pseudomonas aeruginosa 1771, 37° C., 18 to 20 hours, read-out: Minimum Inhibitory Concentration (MIC)
[8] = tested on: Pseudomonas aeruginosa 1771M; assay: MIC against standard strains (agar dilution); details: read-out: Minimum Inhibitory Concentration (MIC)
[9] = tested on: Klebsiella cxytoca 1082E; assay: MIC against standard strains (agar dilution); details: standard strain Klebsiella cxytoca 1082E, 37° C., 18 to 20 hours, read-out: Minimum Inhibitory Concentration (MIC)
[10] = tested on: Enterobacter cloacae P99; assay: MIC against standard strains (agar dilution); details: standard strain Enterobacter cloacae P99, 37° C., 18 to 20 hours, read-out: Minimum Inhibitory Concentration (MIC)
[11] = tested on: Methicillin-sensitive Staphylococcus aureus; assay: MIC against clinically isolated aerobic Gram-positive strains; details: 33 strains
[12] = tested on: Staphylococcus coagulase; assay: as above
[13] = tested on: Streptococcus agalactiae; assay: as above; details: 15 strains
[14] = tested on: Streptococcus pneumoniae; assay: as above; details: 22 strains
[15] = tested on: Enterococcus faecalis; assay: as above; details: 30 strains
[16] = tested on: Moraxella catarrhalis; assay: MIC against clinically isolated aerobic Gram-negative strains; details: 24 strains
[17] = tested on: Haemophilus influenzae; assay: as above; details: 24 strains
[18] = tested on: Escherichia coli; assay: as above; details: 30 strains
[19] = tested on: Klebsiella oxytoca; assay: as above; details: 15 strains
[20] = tested on: Enterobacter cloacae; assay: as above; details: 29 strains
[21] = tested on: Serratia marcescens; assay: as above; details: 14 strains
[22] = tested on: Proteus vulgaris; assay: as above; details: 15 strains
[23] = tested on: Morganella morganii; assay: as above; details: 15 strains
[24] = tested on: Acinetobacter baumannii; assay: as above; details: 30 strains
[25] = tested on: Peptostreptococcus spp.; assay: MIC against clinically isolated anaerobic Gram-positive strains; details: 27 strains
[26] = tested on: Clostridium difficile; assay: as above; details: 15 strains
Protocol: The in vitro antibacterial activities of the sodium 3-carboxylate compound of the present invention prepared in the above Example were measured against standard strains (Table 1), clinically isolated aerobic Gram-positive strains (Table 2), clinically isolated aerobic Gram-negative strains (Table 3), clinically isolated anaerobic Gram-positive strains (Table 4) and clinically isolated anaerobic Gram-negative strains (Table 5) using Gram-positive bacteria such as Streptococcus and Staphylococcus, Gram-negative bacteria such as Escherichia, Salmonella, Krebsiella and Enterobacter. Imipenem (IPM), meropenem (MPM) and ertapenem (EPM) were used as control groups.
The results are shown in Tables 1 to 5, and MIC50 and MIC90 represent the concentrations at which the test strain's growth was inhibited to the extents of 50% and 90%, respectively.

[27] = tested on: Bacteroides thetaiotaomicron; assay: MIC against clinically isolated anaerobic Gram-negative strains; details: clinically isolated anaerobic Bacteroides thetaiotaomicron, 15 strains
[28] = tested on: Bacteroides spp.; assay: as above; details: 11 strains

C[C@@H](O)[C@H]1C(=O)N2C(C(=O)O)=C(S[C@@H]3CN[C@H](/C=C/c4cc(C(=O)O)no4)C3)[C@H](C)[C@H]12 [Example, (1R,5S,6S,8R,3′S,5′S)-2-{5′-[(E)-2-(3-carboxylic acid or sodium carboxylate-5-isoxazolo)ethenyl]pyrrolidin-3′-ylthio}-6-(1-hydroxyethyl)-1-methylcarbapen-2-em-3-carboxylic acid]
MIC [1]: 0.098 µg/mL
MIC [2]: 0.195 µg/mL
MIC [3]: 0.025 µg/mL
MIC [4]: 0.025 µg/mL
MIC [5]: 0.025 µg/mL
MIC [6]: 0.195 µg/mL
MIC [7]: 0.391 µg/mL
MIC [8]: 0.391 µg/mL
MIC [9]: 0.049 µg/mL
MIC [10]: 0.098 µg/mL
MIC50 [11]: 0.12 µg/mL
MIC90 [11]: 0.12 µg/mL
MIC Range [11]: 0.06 to 0.12 µg/mL
MIC50 ([12]; Staphylococcus): 0.12 µg/mL
MIC90 ([12]; Staphylococcus): 0.25 µg/mL
MIC Range ([12]; clinically isolated Staphylococcus coagulase, 22 strains): 0.06 to 0.5 µg/mL
MIC50 [13]: 0.008 µg/mL
MIC90 [13]: 0.015 µg/mL
MIC Range [13]: 0.008 to 0.015 µg/mL
MIC50 [14]: 0.008 µg/mL
MIC90 [14]: 0.12 µg/mL
MIC Range [14]: 0.008 to 0.25 µg/mL
MIC50 [15]: 8 µg/mL
MIC90 [15]: 32 µg/mL
MIC Range [15]: 4 to 32 µg/mL
MIC50 [16]: 0.03 µg/mL
MIC90 [16]: 0.06 µg/mL
MIC Range [16]: 0.015 to 0.06 µg/mL
MIC50 [17]: 0.25 µg/mL
MIC90 [17]: 4 µg/mL
MIC Range [17]: 0.25 to 8 µg/mL
MIC50 [18]: 0.03 µg/mL
MIC90 [18]: 0.25 µg/mL
MIC Range [18]: 0.008 to 2 µg/mL
MIC50 [19]: 0.03 µg/mL
MIC90 [19]: 0.03 µg/mL
MIC Range [19]: 0.015 to 0.25 µg/mL
MIC50 [20]: 0.12 µg/mL
MIC90 [20]: 0.5 µg/mL
MIC Range [20]: 0.015 to 2 µg/mL
MIC50 [21]: 0.03 µg/mL
MIC90 [21]: 16 µg/mL
MIC Range [21]: 0.03 to 16 µg/mL
MIC50 [22]: 0.06 µg/mL
MIC90 [22]: 0.06 µg/mL
MIC Range [22]: 0.03 to 0.06 µg/mL
MIC50 [23]: 0.03 µg/mL
MIC90 [23]: 0.06 µg/mL
MIC Range [23]: 0.03 to 0.12 µg/mL
MIC50 [24]: 8 µg/mL
MIC90 [24]: 64 µg/mL
MIC Range [24]: 2 to 128 µg/mL
MIC50 [25]: 0.12 µg/mL
MIC90 [25]: 4 µg/mL
MIC Range [25]: 0.06 to 4 µg/mL
MIC Range [26]: 2 to 4 µg/mL
MIC50 ([26]; Clostridioides difficile): 4 µg/mL
MIC90 ([26]; Clostridioides difficile): 4 µg/mL
MIC Range [27]: 0.5 to 8 µg/mL
MIC50 ([27]; read-out: MIC50): 1 µg/mL
MIC90 ([27]; read-out: MIC90): 4 µg/mL
MIC50 [28]: 1 µg/mL
MIC90 [28]: 1 µg/mL
MIC Range [28]: 1 to 2 µg/mL
